Laboratory results reported in patent US11661437B2, “Steroid derivative regulators, method for preparing the same, and uses thereof” (priority 2018, dated 2023).

The molecules below were run on GABA-A receptor (assay: 35S-TBPS binding assay on rat cerebral cortex cell membrane). Conditions: 2 nM 35S-TBPS, GABA added, read-out: 35S-TBPS bindng test, IC50 on inhibiting the TBPS binding activity.
Set-up: species or system Sprague-Dawley rat
Method: 1.2.1 Extraction of Cerebral Cortex Cell Membrane:
1. The cerebral cortex of male Sprague-Dawley rat was isolated.
2. A pre-chilled 0.32 M sucrose solution (one tablet of protease inhibitor was added per 100 ml) was added to the cerebral cortex (the volume of sucrose solution was 10 times the volume of the cerebral cortex). The mixture was crushed with a 50 ml glass tissue homogenizer in batches and mixed well.
3. The mixture was centrifuged at 1500 g, 4° C. for 10 minutes, and the supernatant was collected.
4. The mixture was centrifuged at 20000 g, 4° C. for 30 minutes, and the supernatant was discarded.
5. The precipitate was resuspended with the pre-chilled phosphate buffer saline (PBS) (one tablet of protease inhibitor was added per 100 ml). An average of 4 ml of PBS was added per rat, and the mixture was mixed well with a glass tissue homogenizer.
6. The mixture was centrifuged at 10000 g, 4° C. for 10 minutes, and the supernatant was discarded.
7. Steps 5 and 6 were repeated three times.
8. Finally, the precipitate was resuspended with 4 volumes of PBS. The resulting solution was dispensed, frozen in liquid nitrogen, and stored at −80° C.
9. The protein concentration was measured by the bicinchoninic acid (BCA) method.
1.2.2 ^35S-TBPS Binding Assay
1. 230 μL of PBS was added to each well of a well plate with 1.1 ml volume.
2. 60 μL of the cerebral cortex cell membrane (5 μg/μL) solution was added to each well, and the mixture was mixed well.
3. The test compound (3 μL per well) was added, and the plate was incubated at 25° C. for 5 minutes. The DMSO concentration was 1%. The initial compound concentration was 1 NM, and a 3-fold dilution in gradient was carried out to obtain a total of 8 gradients and 2 replicates. 1% DMSO was used as a negative control, and 10 μM P026-2 was used as a positive control.
4. GABA was added at a final concentration of […], and incubated at 25° C. for 5 minutes. 1 mM GABA solution was formulated, and 1.5 μL of the solution was added to each well.
5. ^35S-TBPS was added at a final concentration of 2 nM. The concentration of isotope mother solution was 9.7 μM. After dilution with PBS for 100 times, 6 μL of the diluted isotope solution was added to each well.
6. The plate was incubated at 4° C. for 20 hours.
7. The FilterMate GF/C plate was pre-treated with 0.5% PEI, and incubated at 4° C. for 1 hour.
8. The FilterMate GF/C plate was washed with Universal Harvester twice, 50 ml PBS each time.
9. The reaction solution was transferred to the GF/C plate, and each well was washed 4 times with 900 μL PBS.
10. The washed GF/C plate was placed at 55° C. and dried for 10 minutes.
11. 40 μL of scintillation solution was added to each well, and the CPM value was read with TopCount.
1.2.3 Experimental Data Processing Method:
In the experiment, the CPM (counts per minute) value was read with TopCount. According to the readings of the High control (DMSO) and the Low control (10 μM of the positive compound) experimental groups, the % inhibition was calculated based on the following formula: % Inhibition=100×(CPMHigh control−CPMSample)/(CPMHigh control−CPMLow control)
The IC50 of the compound was calculated according to the following 4-parameter nonlinear logic formula: Y=Bottom+(Top−Bottom)/(1+10^((Log IC50−X)*Hill Slope)),
The effect of the compound of the present invention on the TBPS binding activity was determined by the above test, and the measured IC50 values are shown in Table 1.
Molecule C[C@@]1(O)CC[C@@]2(F)[C@H](CC[C@H]3[C@@H]4CC[C@H](C(=O)Cn5ccc(C#N)n5)[C@@]4(C)CC[C@@H]32)C1 [Example 3, 1-(2-((3R,5R,8S,9S,10R,13S,14S,17S)-10-Fluoro-3-hydroxy-3,13-dimethylhexadecahydro-1H-cyclopenta[a]phenanthren-17-yl)-2-oxoethyl)-1H-pyrazole-3-carbonitrile] has an IC50 of 10.9 nM.
C[C@@]1(O)CC[C@@]2(F)[C@H](CC[C@H]3[C@@H]4CC[C@H](C(=O)Cn5nccn5)[C@@]4(C)CC[C@@H]32)C1 [Example 10, 1-((3R,5R,8S,9S,10R,13S,14S,17S)-10-Fluoro-3-hydroxy-3,13-dimethylhexadecahydro-1H-cyclopenta[a]phenanthren-17-yl)-2-(2H-1,2,3-triazol-2-yl)ethan-1-one] showed an IC50 of 5.3 nM.
Molecule Cc1cnn(CC(=O)[C@H]2CC[C@H]3[C@@H]4CC[C@@H]5C[C@](C)(O)CC[C@]5(F)[C@H]4CC[C@]23C)c1 [Example 11, 1-((3R,5R,8S,9S,10R,13S,14S,17S)-10-Fluoro-3-hydroxy-3,13-dimethylhexadecahydro-1H-cyclopenta[a]phenanthren-17-yl)-2-(4-methyl-1H-pyrazol-1-yl)ethan-1-one] has an IC50 of 41.3 nM.
C[C@@]1(O)CC[C@@]2(F)[C@H](CC[C@H]3[C@@H]4CC[C@H](C(=O)Cn5nc6ccccc6n5)[C@@]4(C)CC[C@@H]32)C1 [Example 14, 2-(2H-Benzo[d][1,2,3]triazol-2-yl)-1-((3R,5R,8S,9S,10R,13S,14S,17S)-10-fluoro-3-hydroxy-3,13-dimethylhexadecahydro-1H-cyclopenta[a]phenanthren-17-yl)ethan-1-one] showed an IC50 of 10.4 nM.
In the case of C[C@@]1(O)CC[C@@]2(F)[C@H](CC[C@H]3[C@@H]4CC[C@H](C(=O)Cn5nnc6ccccc65)[C@@]4(C)CC[C@@H]32)C1 [Example 15, 2-(1H-Benzo[d][1,2,3]triazol-1-yl)-1-((3R,5R,8S,9S,10R,13S,14S,17S)-10-fluoro-3-hydroxy-3,13-dimethylhexadecahydro-1H-cyclopenta[a]phenanthren-17-yl)ethan-1-one], the IC50 is reported as 8.7 nM.
C[C@@]1(O)CC[C@@]2(F)[C@H](CC[C@H]3[C@@H]4CC[C@H](C(=O)Cn5cc6ccncc6n5)[C@@]4(C)CC[C@@H]32)C1 [Example 16, 1-((3R,5R,8S,9S,10R,13S,14S,17S)-10-Fluoro-3-hydroxy-3,13-dimethylhexadecahydro-1H-cyclopenta[a]phenanthren-17-yl)-2-(2H-pyrazolo[3,4-c]pyridin-2-yl)ethan-1-one] showed an IC50 of 40 nM.
With C[C@@]1(O)CC[C@@]2(F)[C@H](CC[C@H]3[C@@H]4CC[C@H](C(=O)Cn5nnc6ccc(F)cc65)[C@@]4(C)CC[C@@H]32)C1 [Example 19, 2-(6-Fluoro-1H-benzo[d][1,2,3]triazol-1-yl)-1-((3R,5R,8S,9S,10R,13S,14S,17S)-10-fluoro-3-hydroxy-3,13-dimethylhexadecahydro-1H-cyclopenta[a]phenanthren-17-yl)ethan-1-one] the IC50 was 15.2 nM.
C[C@@]1(O)CC[C@@]2(F)[C@H](CC[C@H]3[C@@H]4CC[C@H](C(=O)Cn5cc6c(n5)CCCC6)[C@@]4(C)CC[C@@H]32)C1 [Example 21, 1-((3R,5R,8S,9S,10R,13S,14S,17S)-10-Fluoro-3-hydroxy-3,13-dimethylhexadecahydro-1H-cyclopenta[a]phenanthren-17-yl)-2-(4,5,6,7-tetrahydro-2H-indazol-2-yl)ethan-1-one] showed an IC50 of 36.1 nM.
C[C@@]1(O)CC[C@@]2(F)[C@H](CC[C@H]3[C@@H]4CC[C@H](C(=O)CNc5ccccc5F)[C@@]4(C)CC[C@@H]32)C1 [Example 24, 1-((3R,5R,8S,9S,10R,13S,14S,17S)-10-Fluoro-3-hydroxy-3,13-dimethylhexadecahydro-1H-cyclopenta[a]phenanthren-17-yl)-2-((2-fluorophenyl)amino)ethan-1-one] gave an IC50 of 10.2 nM.
Work on C[C@@]1(O)CC[C@@]2(F)[C@H](CC[C@H]3[C@@H]4CC[C@H](C(=O)CNc5cccc(F)c5)[C@@]4(C)CC[C@@H]32)C1 [Example 25, 1-((3R,5R,8S,9S,10R,13S,14S,17S)-10-Fluoro-3-hydroxy-3,13-dimethylhexadecahydro-1H-cyclopenta[a]phenanthren-17-yl)-2-((3-fluorophenyl)amino)ethan-1-one] yielded an IC50 of 6.7 nM.
For C[C@@]1(O)CC[C@@]2(F)[C@H](CC[C@H]3[C@@H]4CC[C@H](C(=O)CNc5ccc(F)cc5C#N)[C@@]4(C)CC[C@@H]32)C1 [Example 27, 5-Fluoro-2-((2-((3R,5R,8S,9S,10R,13S,14S,17S)-10-fluoro-3-hydroxy-3,13-dimethylhexadecahydro-1H-cyclopenta[a]phenanthren-17-yl)-2-oxoethyl)amino)benzonitrile], the IC50 was 7.5 nM.
C[C@@]1(O)CC[C@@]2(F)[C@H](CC[C@H]3[C@@H]4CC[C@H](C(=O)COc5ccc(F)cc5C#N)[C@@]4(C)CC[C@@H]32)C1 [Example 30, 5-Fluoro-2-(2-((3R,5R,8S,9S,10R,13S,14S,17S)-10-fluoro-3-hydroxy-3,13-dimethylhexadecahydro-1H-cyclopenta[a]phenanthren-17-yl)-2-oxoethoxy)benzonitrile] gave an IC50 of 7.2 nM.
C[C@@]1(O)CC[C@@]2(F)[C@H](CC[C@H]3[C@@H]4CC[C@H](C(=O)COc5ccc(C#N)cc5F)[C@@]4(C)CC[C@@H]32)C1 [Example 31, 3-Fluoro-4-(2-((3R,5R,8S,9S,10R,13S,14S,17S)-10-fluoro-3-hydroxy-3,13-dimethylhexadecahydro-1H-cyclopenta[a]phenanthren-17-yl)-2-oxoethoxy)benzonitrile] gave an IC50 of 11.1 nM.
C[C@@]1(O)CC[C@@]2(F)[C@H](CC[C@H]3[C@@H]4CC[C@H](C(=O)COc5ccc(C#N)cc5)[C@@]4(C)CC[C@@H]32)C1 [Example 33, 4-(2-((3R,5R,8S,9S,10R,13S,14S,17S)-10-Fluoro-3-hydroxy-3,13-dimethylhexadecahydro-1H-cyclopenta[a]phenanthren-17-yl)-2-oxoethoxy)benzonitrile] showed an IC50 of 13.8 nM.
With C[C@@]1(O)CC[C@@]2(F)[C@H](CC[C@H]3[C@@H]4CC[C@H](C(=O)COc5cc(C#N)ccc5F)[C@@]4(C)CC[C@@H]32)C1 [Example 34, 4-Fluoro-3-(2-((3R,5R,8S,9S,10R,13S,14S,17S)-10-fluoro-3-hydroxy-3,13-dimethylhexadecahydro-1H-cyclopenta[a]phenanthren-17-yl)-2-oxoethoxy)benzonitrile] the IC50 was 9.3 nM.
Work on C[C@@]1(O)CC[C@@]2(F)[C@H](CC[C@H]3[C@@H]4CC[C@H](C(=O)COc5ccc(C#N)c(F)c5)[C@@]4(C)CC[C@@H]32)C1 [Example 35, 2-Fluoro-4-(2-((3R,5R,8S,9S,10R,13S,14S,17S)-10-fluoro-3-hydroxy-3,13-dimethylhexadecahydro-1H-cyclopenta[a]phenanthren-17-yl)-2-oxoethoxy)benzonitrile] yielded an IC50 of 15.1 nM.
Molecule C[C@@]1(O)CC[C@@]2(F)[C@H](CC[C@H]3[C@@H]4CC[C@H](C(=O)COc5ccc(F)cc5F)[C@@]4(C)CC[C@@H]32)C1 [Example 36, 2-(2,4-Difluorophenoxy)-1-((3R,5R,8S,9S,10R,13S,14S,17S)-10-fluoro-3-hydroxy-3,13-dimethylhexadecahydro-1H-cyclopenta[a]phenanthren-17-yl)ethan-1-one] has an IC50 of 13.7 nM.
C[C@@]1(O)CC[C@@]2(F)[C@H](CC[C@H]3[C@@H]4CC[C@H](C(=O)Cn5cc(Cl)cn5)[C@@]4(C)CC[C@@H]32)C1 [Example 37, 2-(4-Chloro-1H-pyrazol-1-yl)-1-((3R,5R,8S,9S,10R,13S,14S,17S)-10-fluoro-3-hydroxy-3,13-dimethylhexadecahydro-1H-cyclopenta[a]phenanthren-17-yl)ethan-1-one] showed an IC50 of 17 nM.
